Test results taken from ChEMBL document CHEMBL1811810, “N-substituted homopiperazine barbiturates as gelatinase inhibitors” (Bioorg Med Chem, 2011).

Tested on: Caco-2
Experiment: cells
Details: Homo sapiens, Caco-2, read-out: INH
Description: Inhibition of cell invasion of human Caco2 cells at 100 nM by cell invasion assay

Q: How did the inhibition at 0.1 µM turn out when `CN(C)c1cccc2c(S(=O)(=O)N3CCCN(C4(c5ccc(Oc6ccccc6)cc5)C(=O)NC(=O)NC4=O)CC3)cccc12` was run?
A: 20.1%
